# From patent publication US10246411B2, “(Z)-3,4,5-trimethoxystyrylbenzenesulfonamides as potential anticancer agents” (COUNCIL OF SCIENTIFIC & INDUSTRIAL RESEARCH, priority 2014, dated 2019)
# Read-outs that look alike come from different tables or passages of the source.
# What was measured:
# [1] = test system: NCI/ADR-RES; test: In vitro cytotoxicity (NCI protocol, SRB), NCI/ADR-RES; details: Homo sapiens, 48 h
# [2] = test system: PC-3; test: In vitro cytotoxicity (NCI protocol, SRB), PC-3; details: Homo sapiens, PC-3, 48 h
# [3] = test system: MDA-MB-435; test: In vitro cytotoxicity (NCI protocol, SRB), MDA-MB-435 (melanoma panel); details: Melanoma MDA-MB-435, 48 h exposure
# [4] = test system: UACC-257; test: In vitro cytotoxicity (NCI protocol, SRB), UACC-257; details: Homo sapiens, UACC-257, 48 h
# [5] = test system: DU-145; test: In vitro cytotoxicity (NCI protocol, SRB), DU-145; details: Homo sapiens, DU-145, 48 h
# [6] = test system: MDA-MB-231/ATCC; test: In vitro cytotoxicity (NCI protocol, SRB), MDA-MB-231/ATCC; details: Homo sapiens, MDA-MB-231, 48 h
# [7] = test system: A498; test: In vitro cytotoxicity (NCI protocol, SRB), A498; details: Homo sapiens, A498, 48 h
# [8] = test system: HOP92; test: In vitro cytotoxicity (NCI protocol, SRB), HOP92; details: Homo sapiens, HOP-92, 48 h
# [9] = test system: SF-268; test: In vitro cytotoxicity (NCI protocol, SRB), SF-268; details: Homo sapiens, SF-268, 48 h
# [10] = test system: SW-620; test: In vitro cytotoxicity (NCI protocol, SRB), SW-620; details: Homo sapiens, SW-620, 48 h
# [11] = test system: NCI-H23; test: In vitro cytotoxicity (NCI protocol, SRB), NCI-H23; details: Homo sapiens, NCI-H23, 48 h
# [12] = test system: human tumor cell lines; test: In vitro cytotoxicity (NCI protocol, SRB), whole panel / mean graph midpoints; format: cell-based; details: for GI50: Homo sapiens; for Log10GI50 mean graph mid point (MG_MID) / Log10LC50 mean graph mid point (MG_MID) / Log10TGI mean graph mid point (MG_MID): mean over human tumor cell lines
# Source text: The mean graph midpoint values of Log10 TGI and Log10 LC50 as well as Log10 GI50 for compounds 17a, 17c, 13a, 13c and 12a is listed in Table-2. […] The mean graph midpoints of Log10 TGI and Log10 LC50 have shown similar pattern to the log10 GI50 mean graph mid points.
# [13] = test system: SK-MEL-5; test: In vitro cytotoxicity (NCI protocol, SRB), SK-MEL-5; details: Homo sapiens, SK-MEL-5, 48 h
# [14] = test system: MOLT-4; test: In vitro cytotoxicity (NCI protocol, SRB), MOLT-4; details: Homo sapiens, MOLT-4, 48 h
# [15] = test system: COLO-205; test: In vitro cytotoxicity (NCI protocol, SRB), COLO-205; details: Homo sapiens, COLO 205, 48 h
# [16] = test system: MCF7; test: In vitro cytotoxicity (NCI protocol, SRB), MCF7; details: Homo sapiens, MCF7, 48 h
# [17] = test system: CAKI-1; test: In vitro cytotoxicity (NCI protocol, SRB), CAKI-1; details: Homo sapiens, CAKI-1, 48 h
# [18] = test system: HS 578T; test: In vitro cytotoxicity (NCI protocol, SRB), HS 578T; details: Homo sapiens, 48 h
# [19] = test system: SR; test: In vitro cytotoxicity (NCI protocol, SRB), SR; details: Homo sapiens, 48 h
# [20] = test system: OVCAR-4; test: In vitro cytotoxicity (NCI protocol, SRB), OVCAR-4; details: Homo sapiens, OVCAR-4, 48 h
# [21] = test system: SK-OV-3; test: In vitro cytotoxicity (NCI protocol, SRB), SK-OV-3; details: Homo sapiens, SK-OV-3, 48 h
# [22] = test system: 786-0; test: In vitro cytotoxicity (NCI protocol, SRB), 786-0; details: Homo sapiens, 786-0, 48 h
# [23] = test system: SNB -75; test: In vitro cytotoxicity (NCI protocol, SRB), SNB -75; details: Homo sapiens, SNB-75, 48 h
# [24] = test system: OVCAR-5; test: In vitro cytotoxicity (NCI protocol, SRB), OVCAR-5; details: Homo sapiens, OVCAR-5, 48 h
# [25] = test system: LOX IMVI; test: In vitro cytotoxicity (NCI protocol, SRB), LOX IMVI; details: Homo sapiens, 48 h
# [26] = test system: HCC-2998; test: In vitro cytotoxicity (NCI protocol, SRB), HCC-2998; details: Homo sapiens, HCC 2998, 48 h
# [27] = test system: NCIH322M; test: In vitro cytotoxicity (NCI protocol, SRB), NCIH322M; details: Homo sapiens, NCI-H322M, 48 h
# [28] = test system: SNB -19; test: In vitro cytotoxicity (NCI protocol, SRB), SNB -19; details: Homo sapiens, SNB-19, 48 h
# [29] = test system: M14; test: In vitro cytotoxicity (NCI protocol, SRB), M14; details: Homo sapiens, M14, 48 h
# [30] = test system: SF-539; test: In vitro cytotoxicity (NCI protocol, SRB), SF-539; details: Homo sapiens, 48 h
# [31] = against all the cancer cell lines, read-out: GI50 values range
# [32] = against fifty eight cell lines in nine cancer cell panels, read-out: GI50 values
# [33] = against almost 50 above cancer cell lines
# [34] = against almost all tumor cell lines, read-out: GI50 values
SMILES,GI50 [1],GI50 [2],"GI50 ([3]; Homo sapiens, MDA-MB-435, 48 h)",GI50 [5],GI50 [6],GI50 [7],GI50 [8],GI50 [9],GI50 [10],GI50 [11],"GI50 [12, 32]",Log10GI50 mean graph mid point (MG_MID) [12],Log10LC50 mean graph mid point (MG_MID) [12],Log10TGI mean graph mid point (MG_MID) [12],GI50 [13],GI50 [14],GI50 [15],GI50 [16],GI50 [17],GI50 [18],also measured
"COc1ccc(S(=O)(=O)Nc2cc(/C=C\c3cc(OC)c(OC)c(OC)c3)ccc2OC)cc1 [12a, (Z)-4-methoxy-N-(2-methoxy-5-(3,4,5-trimethoxystyryl)phenyl)benzenesulfonamide]",71.1 nM,124 nM,27.4 nM,341 nM,399 nM,35.3 nM,97.4 nM,401 nM,78.5 nM,480 nM,20 to 50 nM,−6.86,−4.06,−4.49,48.8 nM,388 nM,38.3 nM,42.6 nM,51.5 nM,226 nM,"GI50 [4]: 2980 nM; GI50 [12, 31]: 18 to 50 nM; cytotoxicity [12, 33]: significant cytotoxicity; GI50 [19]: 70.9 nM; GI50 [20]: 581 nM; GI50 [21]: 96.3 nM; GI50 [22]: 361 nM; GI50 [23]: 70.8 nM; GI50 [24]: 323 nM; GI50 [25]: 272 nM; GI50 [26]: 442 nM; GI50 [27]: 430 nM; GI50 [28]: 352 nM; GI50 [29]: 103 nM; GI50 [30]: 126 nM"
"COc1ccc(S(=O)(=O)Nc2c(/C=C\c3cc(OC)c(OC)c(OC)c3)ccc(OC)c2O)cc1 [17a, (Z)—N-(2-hydroxy-3-methoxy-6-(3,4,5-trimethoxystyryl)phenyl)-4-methoxybenzenesulfonamide]",155 nM,40.8 nM,19 nM,42.5 nM,50.3 nM,18.8 nM,1600 nM,83.9 nM,40.8 nM,52 nM,20 to 50 nM,−7.17,−4.05,−4.55,36.3 nM,42.3 nM,406 nM,38 nM,51.6 nM,47 nM,"GI50 [3]: 19.2 nM; GI50 [12, 31]: 18 to 50 nM; GI50 [12, 34]: < 50 nM; cytotoxicity [12, 33]: significant cytotoxicity; GI50 [19]: 31.9 nM; GI50 [20]: 76.3 nM; GI50 [21]: 29.6 nM; GI50 [22]: 375 nM; GI50 [23]: 25.5 nM; GI50 [24]: 1020 nM; GI50 [25]: 45.5 nM; GI50 [26]: 31.6 nM; GI50 [27]: 63.3 nM; GI50 [28]: 60.2 nM; GI50 [29]: 31.3 nM; GI50 [30]: 29.3 nM"
"COc1ccc(/C=C\c2cc(OC)c(OC)c(OC)c2)c(NS(=O)(=O)c2ccc(Cl)cc2)c1O [17c, (Z)-4-chloro-N-(2-hydroxy-3-methoxy-6-(3,4,5-trimethoxystyryl)phenyl)benzenesulfonamide]",263 nM,153 nM,22.2 nM,200 nM,206 nM,22.9 nM,2360 nM,380 nM,69.4 nM,288 nM,20 to 50 nM,−6.71,−4.07,−4.66,51 nM,31.5 nM,1740 nM,38.4 nM,54.2 nM,292 nM,"GI50 [4]: 14200 nM; cytotoxicity [12]: significant cytotoxicity; GI50 [12, 31]: 18 to 50 nM; GI50 [19]: 30.6 nM; GI50 [20]: 97.2 nM; GI50 [21]: 229 nM; GI50 [22]: 572 nM; GI50 [23]: 33.1 nM; GI50 [24]: 2860 nM; GI50 [25]: 153 nM; GI50 [26]: 429 nM; GI50 [27]: 485 nM; GI50 [28]: 807 nM; GI50 [29]: 91.3 nM; GI50 [30]: 37 nM"
"COc1cc(/C=C\c2cc(OC)c(OC)c(OC)c2)cc(NS(=O)(=O)c2ccc(Cl)cc2)c1OC [13c, (Z)-4-chloro-N-(2,3-dimethoxy-5-(3,4,5-trimethoxystyryl)phenyl)benzenesulfonamide]",364 nM,395 nM,188 nM,507 nM,1160 nM,179 nM,720 nM,1100 nM,343 nM,710 nM,20 to 50 nM,−6.27,−4.03,−4.42,297 nM,672 nM,252 nM,375 nM,374 nM,351 nM,"GI50 [4]: 12500 nM; cytotoxicity [12, 33]: significant cytotoxicity; GI50 [19]: 406 nM; GI50 [20]: 1530 nM; GI50 [21]: 449 nM; GI50 [22]: 666 nM; GI50 [23]: 227 nM; GI50 [24]: 726 nM; GI50 [25]: 566 nM; GI50 [26]: 1980 nM; GI50 [27]: 759 nM; GI50 [28]: 745 nM; GI50 [29]: 391 nM; GI50 [30]: 303 nM"
"COc1ccc(S(=O)(=O)Nc2cc(/C=C\c3cc(OC)c(OC)c(OC)c3)cc(OC)c2OC)cc1 [13a, (Z)—N-(2,3-dimethoxy-5-(3,4,5-trimethoxystyryl)phenyl)-4-methoxybenzenesulfonamide]",35.3 nM,38 nM,21.1 nM,41.6 nM,47.9 nM,21.7 nM,1750 nM,57.5 nM,43.9 nM,59.3 nM,20 to 50 nM,−7.2,−4.07,−4.55,35.9 nM,49.5 nM,21.4 nM,36 nM,53.1 nM,45.2 nM,"GI50 [4]: 4100 nM; GI50 [12, 31]: 18 to 50 nM; GI50 [12, 34]: < 50 nM; cytotoxicity [12, 33]: significant cytotoxicity; GI50 [19]: 35.2 nM; GI50 [20]: 84.2 nM; GI50 [21]: 37.8 nM; GI50 [22]: 57.9 nM; GI50 [23]: 26.5 nM; GI50 [24]: 49.9 nM; GI50 [25]: 50 nM; GI50 [26]: 39.1 nM; GI50 [27]: 55.3 nM; GI50 [28]: 60.1 nM; GI50 [29]: 30.1 nM; GI50 [30]: 25.3 nM"
